Experiment: Inhibition of Colwellia psychrerythraea gamma carbonic anhydrase expressed in Escherichia coli incubated for 15 mins prior to testing by stopped flow CO2 hydration method

Point of comparison: N=C=S [SODIUM ISOTHIOCYANATE], Ki 3.3 mM. Against it:
- N#CO [SODIUM CYANATE] — within 1.5-fold, 2.5 mM
- O=S([O-])O.[Na+] [SODIUM BISULFITE] — 11-fold higher, 37.5 mM
- [I-].[Na+] [SODIUM IODIDE] — 2.6-fold higher, 8.7 mM
- [Cl-].[Na+] [SODIUM CHLORIDE] — 2.7-fold higher, 9 mM
- O=[Se](=O)(O)O [SODIUM SELENATE] — 2.5-fold higher, 8.3 mM
- [N-]=[N+]=[N-] [SODIUM AZIDE] — higher, > 100 mM
- O=[Te](=O)(O)O [SODIUM TELLURATE] — 1.5-fold higher, 5.1 mM
- S=C(S)S [SODIUM CARBONOTRITHIOATE] — within 1.5-fold, 3.8 mM
- O=[As](O)(O)c1ccccc1 [PHENYLARSONIC ACID] — 87-fold lower, 0.038 mM
- F[P-](F)(F)(F)(F)F.[Na+] — 1.7-fold higher, 5.6 mM
- [F-].[Na+] [SODIUM FLUORIDE] — higher, > 100 mM
- [O-][Cl+3]([O-])([O-])O [SODIUM PERCHLORATE] — higher, > 100 mM
- O=C([O-])O.[Na+] [SODIUM BICARBONATE] — 1.9-fold lower, 1.7 mM
- O=S(=O)([O-])[O-].[Na+].[Na+] [SODIUM SULFATE ANHYDROUS] — 2.8-fold higher, 9.4 mM
- F[B-](F)(F)F.[Na+] [SODIUM TETRAFLUOROBORATE] — higher, > 100 mM
- CCN(CC)C(=S)S [DITIOCARB SODIUM] — 5.7-fold lower, 0.58 mM
- N=C=[Se] [SODIUM ISOSELENOCYANATE] — 1.8-fold higher, 6 mM
- O=C([O-])[O-].[Na+].[Na+] [SODIUM CARBONATE] — 2.4-fold lower, 1.4 mM
- O=NO [SODIUM NITRITE] — 2.7-fold higher, 8.8 mM
- [Br-].[Na+] [SODIUM BROMIDE] — higher, > 100 mM
- O=S(=O)(O)OOS(=O)(=O)O [SODIUM PERSULFATE] — within 1.5-fold, 4.5 mM
- O=BOB(O)OB(O)OB=O [SODIUM TETRABORATE] — within 1.5-fold, 4.7 mM
- NS(N)(=O)=O [SULFAMIDE] — 410-fold lower, 0.008 mM
- S [SODIUM HYDROSULFIDE] — within 1.5-fold, 4.8 mM
- O=[N+]([O-])[O-].[Na+] [SODIUM NITRATE] — 6.6-fold higher, 21.7 mM
- NS(=O)(=O)O [SULFAMATE] — 89-fold lower, 0.037 mM
- OB(O)c1ccccc1 [PHENYLBORONIC ACID] — 130-fold lower, 0.026 mM

From ChEMBL document CHEMBL3745630, “Cloning, characterization and anion inhibition studies of a γ-carbonic anhydrase from the Antarctic bacterium Colwellia psychrerythraea” (Bioorg Med Chem, 2016)
